{"source": "PubChem BioAssay AID270", "about": "(DTP/NCI, 2004)", "test_system": "BDF1 mice, s.c. Lewis lung carcinoma, T/C %", "assay": "NCI In Vivo Anticancer Drug Screen. Data for tumor model Lewis Lung Carcinoma (subcutaneous) in B6D2F1 (BDF1) mice", "summary_of_the_method": "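The value reflects a ratio in which the treated cohort's survival time or tumour size is compared against mice receiving only vehicle.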", "note": "“And” between values parts separate entries of the source, which are not always exact repeats. Identical values can stand only once. Records with an inconclusive call do not appear.", "data": [{"smiles": "CC(C)=CC1C(C(=O)OCc2ccc(C)cc2C)C1(C)C", "note": "(stereo not given)", "values": [{"measurement": "T/C", "setting": "endpoint: median survival time, dose: 12.5 mg/kg/injection, schedule: Q01DX009 (ip), vehicle: saline with Tween-80, higher = longer survival", "result": "93 % of control"}, {"measurement": "T/C", "setting": "endpoint: median survival time, dose: 25.0 mg/kg/injection, schedule: Q01DX009 (ip), vehicle: saline with Tween-80, higher = longer survival", "result": "104 % of control"}, {"measurement": "T/C", "setting": "endpoint: median survival time, dose: 50.0 mg/kg/injection, schedule: Q01DX009 (ip), vehicle: saline with Tween-80, higher = longer survival", "result": "89 % of control"}, {"measurement": "T/C", "setting": "endpoint: median survival time, dose: 100.0 mg/kg/injection, schedule: Q01DX009 (ip), vehicle: saline with Tween-80, higher = longer survival", "result": "95 % of control"}, {"measurement": "T/C", "setting": "endpoint: median survival time, dose: 200.0 mg/kg/injection, schedule: Q01DX009 (ip), vehicle: saline with Tween-80, higher = longer survival", "result": "98 % of control"}]}, {"smiles": "C[C@]12CC[C@H](O)CC1=CC[C@@H]1[C@@H]2CC[C@]2(C)c3nc4ccccc4cc3C[C@@H]12", "values": [{"measurement": "T/C", "setting": "endpoint: mean tumor weight, dose: 0.2 mg/kg/injection, schedule: Q01DX011 (sc), vehicle: steriod suspending solution, higher = larger tumour", "result": "104 % of control"}, {"measurement": "T/C", "setting": "endpoint: mean tumor weight, dose: 0.4 mg/kg/injection, schedule: Q01DX011 (sc), vehicle: steriod suspending solution, higher = larger tumour", "result": "87 % of control"}, {"measurement": "T/C", "setting": "endpoint: mean tumor weight, dose: 0.8 mg/kg/injection, schedule: Q01DX011 (sc), vehicle: steriod suspending solution, higher = larger tumour", "result": "95 % of control"}, {"measurement": "T/C", "setting": "endpoint: mean tumor weight, dose: 1.6 mg/kg/injection, schedule: Q01DX011 (sc), vehicle: steriod suspending solution, higher = larger tumour", "result": "117 % of control"}, {"measurement": "T/C", "setting": "endpoint: mean tumor weight, dose: 3.25 mg/kg/injection, schedule: Q01DX011 (sc), vehicle: steriod suspending solution, higher = larger tumour", "result": "93 % of control"}, {"measurement": "T/C", "setting": "endpoint: mean tumor weight, dose: 7.5 mg/kg/injection, schedule: Q01DX011 (sc), vehicle: steriod suspending solution, higher = larger tumour", "result": "63 % of control"}, {"measurement": "T/C", "setting": "endpoint: mean tumor weight, dose: 15.6 mg/kg/injection, schedule: Q01DX011 (sc), vehicle: steriod suspending solution, higher = larger tumour", "result": "70 % of control"}, {"measurement": "T/C", "setting": "endpoint: mean tumor weight, dose: 31.3 mg/kg/injection, schedule: Q01DX011 (sc), vehicle: steriod suspending solution, higher = larger tumour", "result": "43 % of control"}, {"measurement": "T/C", "setting": "endpoint: mean tumor weight, dose: 60.0 mg/kg/injection, schedule: Q01DX011 (sc), vehicle: steriod suspending solution, higher = larger tumour", "result": "95 % of control"}, {"measurement": "T/C", "setting": "endpoint: mean tumor weight, dose: 62.5 mg/kg/injection, schedule: Q01DX011 (sc), vehicle: steriod suspending solution, higher = larger tumour", "result": "91 % of control"}, {"measurement": "T/C", "setting": "endpoint: mean tumor weight, dose: 90.0 mg/kg/injection, schedule: Q01DX011 (sc), vehicle: steriod suspending solution, higher = larger tumour", "result": "83 % of control"}, {"measurement": "T/C", "setting": "endpoint: mean tumor weight, dose: 125.0 mg/kg/injection, schedule: Q01DX011 (sc), vehicle: steriod suspending solution, higher = larger tumour", "result": "52 % of control"}, {"measurement": "T/C", "setting": "endpoint: mean tumor weight, dose: 500.0 mg/kg/injection, schedule: Q01DX011 (sc), vehicle: steriod suspending solution, higher = larger tumour", "result": "77 % of control"}]}, {"smiles": "CNC=O", "values": [{"measurement": "T/C", "setting": "endpoint: mean tumor weight, dose: 250.0 mg/kg/injection, schedule: Q01DX011 (ip), vehicle: saline, higher = larger tumour", "result": "67 % of control and 69 % of control"}, {"measurement": "T/C", "setting": "endpoint: mean tumor weight, dose: 500.0 mg/kg/injection, schedule: Q01DX011 (ip), vehicle: saline, higher = larger tumour", "result": "10 % of control and 12 % of control"}]}]}
